Converted amounts (≈) assume the structure as drawn. “And” between values parts separate entries of the source, which are not always exact repeats. Identical values can stand only once.
Assays:
FA21436 = experiment: In vitro antifungal activity, serial agar dilution method (Table 1); assay type: cell-based, Asoergukkys flavus; settings: Sabouraud dextrose agar (pH 7.0); 28°C for 40 hours; read-out: MIC, Asoergukkys flavus FA21436
Protocol: (§1) The inoculum size was adjusted to 10⁶ cells/ml, and a volume of approximately 0.003 ml of fungal suspension was applied to the surface of the antibiotic containing agar plates with a multiinoculator. After incubation, the lowest concentration of antibiotic causing virtually complete inhibition of fungal growth was determined as the minimum inhibitory concentration (MIC). Table 1. [table]

[1] = test system: Aspergillus fumigatus IAM2034; experiment: as above; assay type: cell-based; settings: Aspergillus fumigatus, IAM2034; Sabouraud dextrose agar (pH 7.0); 28°C for 40 hours
Protocol: as §1

[2] = test system: Aspergillus fumigatus IAM2530; experiment: as above; assay type: cell-based; settings: Aspergillus fumigatus, IAM2530; Sabouraud dextrose agar (pH 7.0); 28°C for 40 hours
Protocol: as §1

[3] = test system: Blastomyces dermatidis D40; experiment: as above; assay type: cell-based; settings: Blastomyces, D40; Sabouraud dextrose agar (pH 7.0); 28°C for 40 hours; read-out: MIC, Blastomyces dermatidis D40
Protocol: as §1

Candida albicans A9540 [4] = experiment: as above; assay type: cell-based; settings: Candida albicans, A9540; Sabouraud dextrose agar (pH 7.0); 28°C for 40 hours
Protocol: as §1

Candida albicans IAM4888 = experiment: as above; assay type: cell-based; settings: Candida albicans, IAM4888; Sabouraud dextrose agar (pH 7.0); 28°C for 40 hours
Protocol: as §1

[5] = test system: Cryptococcus neoformans D49; experiment: as above; assay type: cell-based; settings: Cryptococcus neoformans, D49; Sabouraud dextrose agar (pH 7.0); 28°C for 40 hours; read-out: MIC, Cryptococcus neoformans D49
Protocol: as §1

[6] = test system: Cryptococcus neoformans IAM4514; experiment: as above; assay type: cell-based; settings: Cryptococcus neoformans, IAM4514; Sabouraud dextrose agar (pH 7.0); 28°C for 40 hours
Protocol: as §1

[7] = test system: Fusarium moniliforme A2284; experiment: as above; assay type: cell-based; settings: Fusarium verticillioides, A2284; Sabouraud dextrose agar (pH 7.0); 28°C for 40 hours
Protocol: as §1

Mucor spinosus IFO5317 = experiment: as above; assay type: cell-based; settings: Sabouraud dextrose agar (pH 7.0), 28°C for 40 hours
Protocol: as §1

[8] = test system: Petriellidium boydii IFO8078; experiment: as above; assay type: cell-based; settings: Scedosporium boydii, IFO8078; Sabouraud dextrose agar (pH 7.0); 28°C for 40 hours
Protocol: as §1

[9] = test system: Sprotricosis schenckii IFO8158; experiment: as above; assay type: cell-based; settings: Sabouraud dextrose agar (pH 7.0); 28°C for 40 hours; read-out: MIC, Sprotricosis schenckii IFO8158
Protocol: as §1

[10] = test system: Trichophyton mentagrophytes #4329; experiment: as above; assay type: cell-based; settings: Trichophyton mentagrophytes; Sabouraud dextrose agar (pH 7.0); 28°C for 40 hours
Protocol: as §1

[11] = test system: Trichophyton mentagrophytes D155; experiment: as above; assay type: cell-based; settings: Trichophyton mentagrophytes, D155; Sabouraud dextrose agar (pH 7.0); 28°C for 40 hours
Protocol: as §1

Candida albicans A25578 = experiment: In vitro antifungal activity, serial agar dilution method (Table 1a); assay type: cell-based; settings: A25578, YM agar (pH 7.0, Difco), 30°C for 2 days (yeast) or 4 days (filamentous fungi), read-out: MICs, Candida albicans A25578
Protocol: as §1, with “(MIC).” for “(MIC). Table 1. [table]”

[12] = test system: Candida paratropicalis A25825; experiment: as above; assay type: cell-based; settings: YM agar (pH 7.0, Difco); 30°C for 2 days (yeast) or 4 days (filamentous fungi); read-out: MICs, Candida paratropicalis A25825
Protocol: as §1, with “(MIC).” for “(MIC). Table 1. [table]”

[13] = test system: Candida pseudotropicalis A25802; experiment: as above; assay type: cell-based; settings: Kluyveromyces marxianus, YM agar (pH 7.0, Difco), 30°C for 2 days (yeast) or 4 days (filamentous fungi), read-out: MICs, Candida pseudotropicalis A25802
Protocol: as §1, with “(MIC).” for “(MIC). Table 1. [table]”

[14] = test system: Candida tropicalis A25809; experiment: as above; assay type: cell-based; settings: YM agar (pH 7.0, Difco), 30°C for 2 days (yeast) or 4 days (filamentous fungi), read-out: MICs, Candida tropicalis A25809
Protocol: as §1, with “(MIC).” for “(MIC). Table 1. [table]”

[15] = test system: Microsporum gypseum WW1107; experiment: as above; assay type: cell-based; settings: Nannizzia gypsea, YM agar (pH 7.0, Difco), 30°C for 2 days (yeast) or 4 days (filamentous fungi), read-out: MICs, Microsporum gypseum WW1107
Protocol: as §1, with “(MIC).” for “(MIC). Table 1. [table]”

[16] = test system: Trichophyton mentagrophytes A26771; experiment: as above; assay type: cell-based; settings: A26771, YM agar (pH 7.0, Difco), 30°C for 2 days (yeast) or 4 days (filamentous fungi), read-out: MICs, Trichophyton mentagrophytes A26771
Protocol: as §1, with “(MIC).” for “(MIC). Table 1. [table]”

Candida albicans A9540 [17] = experiment: Intravenous Candida albicans infection mouse model, Table 2 part A; assay type: in vivo; settings: drug administered once just after infection, 20 days after fungal challenge, method of Litchfield and Wilcoxon, male ICR mice
Protocol: (§2) Several compounds were also evaluated in an intravenous Candida albicans […] infection mouse model. The test organism was suspended in saline approximately 10 times the median lethal dose of the fungus (10⁶ cells/mouse) were used to infect intravenously male ICR mice weighing 20 to 24 g. Groups of five mice at each dose level were given the test compounds intravenously or intramuscularly. The 50% protective dose (PD₅₀) was calculated from survival rates recorded 20 or 21 days after the fungal challenge. Control animals died between 7 to 15 days.

Candida albicans A9540 [18] = experiment: Intravenous Candida albicans infection mouse model, Table 2 part B; assay type: in vivo, mice; settings: at 1 and 3.5 hrs after infection and twice on the following day, 21 days after fungal challenge, method of Spearman-Karber, male ICR mice
Protocol: as §2, with “Control animals died between 7 to 15 days.” left out

Protocol for physchem: The sample (3 ∼ 3.5 mg) was suspended in 1 ml of PBS(-) or PBS(+), sonicated at 30°C for 10 minutes, and allowed to stand at room temperature for 2 hours. The resulting solution or suspension was centrifuged at 12,000 rpm for 10 minutes. The supernatant (pH 6.7 ∼ 7.2) was diluted (5 x or 50 x) with 0.01N NaOH (pH ca. 11.5) and its UV absorption at 500 nm was measured. The solubility was assessed by the absorption coefficient value with reference to the standard. […] The zwitterionic form sample was used for the solubility test as it is. The hydrochloride salt sample (3 mg) was dissolved in 3 ml of distilled water and neutralized with 0.01N NaOH, and then the solution was lyophilized to give a test sample.
Dulbecco's phosphate buffered saline (PBS) solution was used. Preparation of PBS(-) solution: One PBS(-) tablet (Flow Laboratories, Cat. No. 28-103-05) was dissolved in 100 ml distilled water, and the solution was autoclaved for 10 minutes at 115°C. This solution contains 0.2 g/L of KCl, 0.2 g/L of KH₂PO₄, 8 g/L of NaCl, and 1.15 g/L of Na₂HPO₄. Preparation of PBS(+) solution: One PBS(-) tablet was dissolved in 80 ml distilled water; 10 mg of CaCl₂ was dissolved in 10 ml distilled water; 10 mg of MgCl₂, 6H₂O was dissolved in 10 ml distilled water. These solutions were separately autoclaved, as described above, and mixed when cooled.

Which MIC (FA21436) does the source give for `CN[C@@H]1[C@H](O[C@@H]2OC[C@@H](O)[C@H](O)[C@H]2O)[C@@H](O)[C@H](O[C@H]2c3cc(C)c(C(=O)N[C@H](C)C(=O)O)c(O)c3-c3c(cc4c(c3O)C(=O)c3cc(OC)cc(O)c3C4=O)[C@@H]2O)O[C@@H]1C` [Pradimicin A, reference compound] here?
The MIC was 6.3 µg/mL (≈ 7.49 µM).

What about the MIC [1] of the same molecule?
Its MIC is 3.1 µg/mL (≈ 3.69 µM).

And the MIC [2]?
The MIC was 3.1 µg/mL (≈ 3.69 µM).

And the MIC [3]?
The MIC was 3.1 µg/mL (≈ 3.69 µM).

And the MIC (Candida albicans A9540 [4])?
Its MIC is 50 µg/mL (≈ 59.5 µM).

What about the MIC (Candida albicans IAM4888) of the same molecule?
The MIC was 6.3 µg/mL (≈ 7.49 µM).

What about the MIC [5] of the same molecule?
The MIC was 0.8 µg/mL (≈ 0.951 µM).

What about the MIC [6] of the same molecule?
The MIC was 0.8 µg/mL (≈ 0.951 µM).

What about the MIC [7] of the same molecule?
Its MIC is 3.1 µg/mL (≈ 3.69 µM).

And the MIC (Mucor spinosus IFO5317; Mucor spinosus, IFO5317)?
The MIC was greater than 100 µg/mL.

And the “Partial Inhibition, Mucor spinosus IFO5317” value (Mucor spinosus IFO5317; value in parentheses = Partial Inhibition)?
The value was 12.5 µg/mL.

And the MIC [8]?
Its MIC is 12.5 µg/mL (≈ 14.9 µM).

What about the MIC [9] of the same molecule?
Its MIC is 1.6 µg/mL (≈ 1.9 µM).

What about the MIC [10] of the same molecule?
Its MIC is 3.1 µg/mL (≈ 3.69 µM).

And the MIC [11]?
The MIC was 6.3 µg/mL (≈ 7.49 µM).

And the MIC (Candida albicans A25578)?
The MIC was 3.2 µg/mL (≈ 3.81 µM).

What about the MIC [12] of the same molecule?
Its MIC is greater than 50 µg/mL.

What about the MIC [13] of the same molecule?
Its MIC is 3.2 µg/mL (≈ 3.81 µM).

What about the MIC [14] of the same molecule?
Its MIC is 1.6 µg/mL (≈ 1.9 µM).

And the MIC [15]?
The MIC was 12.5 µg/mL (≈ 14.9 µM).

And the MIC [16]?
Its MIC is 6.3 µg/mL (≈ 7.49 µM).

What about the PD₅₀ (Candida albicans A9540 [17]) of the same molecule?
The PD₅₀ was 11 mg/kg and 7.9 mg/kg.

What about the PD₅₀ (Candida albicans A9540 [18]; Part B: route IM) of the same molecule?
Its PD₅₀ is 8.2 mg/kg.

And the PD₅₀ (Candida albicans A9540 [18]; Part B: route IV)?
The PD₅₀ was 30 mg/kg.

And the solubility at 2 h (physchem; Method II (+): PBS(+))?
The solubility at 2 h was 81 µg/mL (≈ 96.3 µM).

What about the solubility at 2 h (physchem; Method II (-): PBS(-)) of the same molecule?
Its solubility at 2 h is 17 µg/mL (≈ 20.2 µM).

Reference: patent EP0428132A1, “Pradimicin derivatives” (Bristol-Myers Squibb Company, priority 1989, dated 1991)
